Source: ChEMBL document CHEMBL1127874, “Development of tetrazole bioisosteres in angiotensin II antagonists” (Bioorg Med Chem Lett, 1994)

Legend:
[1] = species on record: Oryctolagus cuniculus; assay: Inhibitory activity against contractile response to angiotensin II (10 nM) of rabbit aortic rings; assay type: functional; conditions: Aorta
[2] = target: T1, Angiotensin II receptor (AT-1) type-1 (Rattus norvegicus, UniProt P29089+P25095); assay: Binding affinity towards Angiotensin II receptor, type 1 in rat liver membrane using [125I]-angiotensin II (0.1 nM); assay type: cell membranes
T1 sequence (P29089 whole entry): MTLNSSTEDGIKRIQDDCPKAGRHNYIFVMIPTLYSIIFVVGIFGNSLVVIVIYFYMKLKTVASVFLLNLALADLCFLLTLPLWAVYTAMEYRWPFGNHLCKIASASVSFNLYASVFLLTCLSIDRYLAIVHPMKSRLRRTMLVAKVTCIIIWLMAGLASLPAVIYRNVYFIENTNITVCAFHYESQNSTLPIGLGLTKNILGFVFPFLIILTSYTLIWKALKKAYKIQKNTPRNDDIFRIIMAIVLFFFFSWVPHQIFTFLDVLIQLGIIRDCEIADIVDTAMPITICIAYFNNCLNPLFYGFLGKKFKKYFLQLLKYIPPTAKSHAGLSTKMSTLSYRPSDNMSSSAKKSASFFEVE
T1 sequence (P25095 whole entry): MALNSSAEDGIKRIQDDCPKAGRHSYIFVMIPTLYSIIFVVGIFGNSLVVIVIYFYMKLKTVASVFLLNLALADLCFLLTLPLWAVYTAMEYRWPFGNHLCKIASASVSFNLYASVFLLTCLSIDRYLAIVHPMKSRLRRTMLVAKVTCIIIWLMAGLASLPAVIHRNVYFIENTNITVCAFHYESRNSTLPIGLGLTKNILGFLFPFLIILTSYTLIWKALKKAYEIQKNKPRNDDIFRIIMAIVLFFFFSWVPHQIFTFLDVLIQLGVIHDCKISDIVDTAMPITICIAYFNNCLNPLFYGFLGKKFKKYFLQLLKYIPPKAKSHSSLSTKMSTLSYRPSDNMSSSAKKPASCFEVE

IC50 [1] [nM]	IC50 [2] [nM]	SMILES
140	25	CCCCC1=NC2(CCCC2)C(=O)N1Cc1ccc(-c2ccccc2C2=NOC(=O)C2)cc1
67	60	CCCCC1=NC2(CCCC2)C(=O)N1Cc1ccc(-c2ccccc2-c2nnc(O)o2)cc1
–	100	CCCCC1=NC(C)(C2CCCCC2)C(=O)N1Cc1ccc(-c2ccccc2-c2n[nH]c(O)n2)cc1 (stereo not drawn)
–	230	CCCCC1=NC2(CCCC2)C(=O)N1Cc1ccc(-c2ccccc2-c2nc(=O)[nH]o2)cc1
2.6	1.7	CCCCC1=NC2(CCCC2)C(=O)N1Cc1ccc(-c2ccccc2-c2noc(O)n2)cc1
2.8	1.4	CCCCC1=NC2(CCCC2)C(=O)N1Cc1ccc(-c2ccccc2-n2oc(=O)[nH]c2=O)cc1
0.64	0.7	CCCCC1=NC(C)(C2CCCCC2)C(=O)N1Cc1ccc(-c2ccccc2-c2noc(O)n2)cc1 (stereo not drawn)
–	1.3	CCCCC1=NC2(CCCC2)C(=O)N1Cc1ccc(-c2ccccc2-c2nnn[nH]2)cc1 [IRBESARTAN]
